Laboratory results from patent US20170290820A1, “METHODS AND COMPOSITIONS FOR TREATING BETA-THALASSEMIA AND SICKLE CELL DISEASE” (Academia Sinica, priority 2013, published 2017).

Tested on: BCL11A
Assay: BCL11A mRNA level by relative quantitative RT-PCR
Type: cell-based, human
Details: FIG. 4A; at IC50, 3 days, relative to mock
Method: FIGS. 4A-4D are graphs showing the expression profiles of the γ globin gene and HbF-related regulators after compounds treatment in the primary human erthroid cells. […] Data are presented as the relative expression level in mean±SEM, N=8. […] Upper panel: For detection of the induction level of γ globin, fifty microgram of total cell lysate was analyzed by western blot analysis using antibody against γ globin, or β-actin. Lower panel: The signal intensity was quantified by an image-analyzing software. The intensity of γ globin expression levels of mock control was set as 1. Data are shown as the mean±SEM, N=5. […] Lower panel: The signal was quantified by an image-analyzing software. […] Total RNA was extracted, and the expression level of γ globin gene was analyzed by relative quantitative RT-PCR. […]
After 3 days of drug-treatment, the total RNA was extracted by RNA Spin mini kit (Ge-Healthcare) and reverse-transcription was performed by using superscript II (Invitrogen) followed the manufactors instruction. Quantitative PCR was performed on LightCycler with using STBR green master mix followed the manufactors instruction (Roche). The absolute quantitative RT-PCR was calculated by the standard curve with supplying a known copy number of plasmids. The relative quantitative RT-PCR was normalized to the expression levels of the β-actin and compared to the mock control. […]

In the case of `CCCC(=O)[O-].[Na+]` [NaB, sodium butyrate], the “expression level of BCL11A mRNA” value is reported as 0.6 folds.
